# Article PMC10342150, “Artesunate Dry Emulsion Formulation Combined with Antibiotics for Treatment of Helicobacter pylori Infections: In Vitro/In Vivo Evaluation” (International Journal of Molecular Sciences, 2023)
# Key:
# Helicobacter pylori = experiment: Agar disk diffusion assay; format: cell-based; conditions: paper disks, ~20 mg/mL
# Method: Practically, impregnated paper disks with a determined concentration (~20 mg/mL) of ADEF were deposited on the surface of a standardized culture medium previously inoculated with a calibrated inoculum of a pure culture of H. pylori. After incubation, the Petri dishes were examined, and the diameters of the zones of inhibition surrounding the disks were measured. The obtained values were thereafter compared to the critical values of the different antimicrobial standards to determine the clinical categorization (resistant, intermediate, sensitive).
# [1] = Solubility in simulated gastric fluid (SGF, pH 1.5); format: physicochemical; conditions: 0.5 g in 10 mL SGF pH 1.5, 36.5 °C, 30 min stirring
# Method: An amount of 0.5 g of native artesunate and ADEF was dispersed in 10 mL of simulated gastric fluid (SGF, pH 1.5). All solutions were incubated at 36.5 °C under mild shaking (100 rev/min) in a G24 Environmental Incubator Shaker (New Brunswick Scientific Co., Edison, NJ, USA) for 30 min.
# [2] = Pharmacokinetics after single oral (gavage) administration in rats; conditions: different doses (up to 150 mg/kg)
# Method: (§1) The objective of this study was to investigate the pharmacokinetic (PK) profile of ADEF after a single oral (gavage) administration to rats at the following doses: • Low dose: 25 and 50 mg/kg of ADEF; • Mid dose: 100 mg/kg of ADEF; • High dose: 150 mg/kg of ADEF.
# (§2) For comparative study, native artesunate was also included in this study, but only at a high dose of 150 mg/kg.
# (§3) After a 1-week acclimation period, ADEF was administered orally to rats, and blood samples were collected at various time intervals (5, 10, 15, 30, 45, and 60 min) using K2EDTA tubes as anticoagulants. The collected tubes were then placed on wet ice. Subsequently, the samples were centrifuged at 1000× g for 10 min at 4 °C. The resulting plasma was recovered and stored frozen at temperatures below or equal to −60 °C for further analysis.
# (§4) Non-compartmental analysis of the test item and its metabolite concentrations in plasma was performed by using the Phoenix® WinNonlin®6 6.4 software.
# [3] = design: method as in earlier work; conditions: artesunate in acidic form; cited from earlier work
# [4] = design: method as in PMID 17694524; conditions: cited from earlier work
# in vivo = conditions: male, Sprague-Dawley, rat, plasma, po, 150 mg/kg
# Method: as §1, §2, §3, §4
# H. pylori PremSS1 = experiment: In vivo efficacy against H. pylori in infected mice (bacterial culture and qPCR of stomach); design: species or system C57BL/6 mice; conditions: oral, single dose per day for 14 days; ADEF 40 mg/kg, amox 30 mg/kg, PPI 150 mg/kg; bacterial culture and qPCR (Figure 8A,B)
# Source text: Animals: A mouse model of H.-pylori-induced disease using pre-murine Sydney strain-1 (PremSS1) in mice C57BL/6 was extensively used in Helicobacter research. The persistence of mouse colonization, distribution, and long-lasting infection is attributable to the strain’s capabilities. For these reasons mice C57BL/6 were selected in this study. In fact, male mice with «specific pathogen-free» status (CHU of Bordeaux, Amélie Raba-Léon place, Bordeaux Cedex) at 6 weeks of age were housed in an acclimatization room for 1 week before experimentation.
# Mouse gavage with H. pylori: Mice were fasted the day before the gavage days. They were force-fed with approximately 10^8 H. pylori PremSS1 in 100 µL of phosphate-buffered saline in the morning and then placed in a cage for the rest of the day under normal conditions. The gavages were carried out on three consecutive days. A bacteria viability test was accomplished post-gavage by platting a bacterial pellet on «Poly-house-made» agar for 24 h. […]
# Each quarter of the mouse stomach was placed in a tube that was RNASE and DNASE free, containing 200 μL of physiological water. […] The remaining 90 µL were extracted for H. pylori quantification using qPCR. […] All samples were prepared in duplicate, and the results were expressed as cfu/mg of stomach tissue. […]
SMILES,Inhibition zone (Helicobacter pylori),Solubility in simulated gastric fluid [1],Mortality or abnormal signs [2],Water solubility [3],"Stability in aqueous, acidic and basic media [4]",AUC(0-t) (in vivo),Cmax (in vivo),Tmax (in vivo),half-life (in vivo),Effect against H. pylori in infected mice (H. pylori PremSS1)
"C[C@H]1[C@H](OC(=O)CCC(=O)O)O[C@@H]2O[C@@]3(C)CC[C@H]4[C@H](C)CC[C@@H]1[C@@]24OO3 [Native Artesunate, artesunate]",two distinct zones were observed,did not dissolve,no mortality or abnormal signs,about 0.68 % (w/w),unstable,211 ng·h/mL,701 ng/mL,15 min,18 min,
"COc1ccnc(C[S+]([O-])c2nc3ccc(OC(F)F)cc3[nH]2)c1OC (centres unmarked) [PPI, pantoprazole]",,,,,,,,,,did not exhibit a significant effect
"CC1(C)S[C@@H]2[C@H](NC(=O)[C@H](N)c3ccc(O)cc3)C(=O)N2[C@H]1C(=O)O [amox, amoxicillin]",,,,,,,,,,did not exhibit a significant effect
